Results published in publication PMC9681820, “A PDE10A inhibitor CPL500036 is a novel agent modulating striatal function devoid of most neuroleptic side-effects” (Frontiers in Pharmacology, 2022).
pIC50: −log10 of the molar value. Like-named read-outs stand apart in the source and are kept apart here.

How the values were obtained:
[1] = tested on: Salmonella typhimurium TA100; conditions: CPL500036 5000µg/plate, n=3
[2] = tested on: Salmonella typhimurium TA1535; conditions: CPL500036 5000µg/plate, n=3
[3] = design: method as in ref Megens A. A. H. P. et al., 2014; Suzuki et al., 2015; Arakawa et al., 2016; conditions: compared with marketed antipsychotics; ref Megens A. A. H. P. et al., 2014; Suzuki et al., 2015; Arakawa et al., 2016; cited from earlier work
[4] = tested on: cardiac 3D spheroids (cardiomyocytes and fibroblasts derived from human pluripotent cells); assay: Cardiotoxicity in spontaneously beating cardiac 3D spheroids; type: cell-based; conditions: 3D cardiac spheroids; for AC50: Homo sapiens
Procedure: The cardiotoxic effect of CPL500036 was evaluated in spontaneously beating cardiac 3D spheroids (comprising cardiomyocytes and fibroblasts derived from human pluripotent cells) by Cyprotex (Cheshire, United Kingdom). Experiments were carried out in accordance with the service-provider’s protocol. Specific parameters of cell health were assessed: number and size of spheroids, DNA structure, intracellular level of calcium ions, mitochondrial mass, membrane potential and cellular ATP. […] During the 14 days of the experiment, redosing occurred on three occasions. Spheroid hypertrophy was measured on days 3, 7, 10, and 14 using the “brightfield live cellular imaging” mode of a Cellomics ArrayScan® XTI system (Thermo Scientific, Waltham, MA, United States). On day-14, the spheroid model was analyzed using the confocal mode of Cellomics ArrayScan XTI following incorporation of appropriate fluorescent dyes. Subsequently, cellular ATP content was measured using CellTiterGlo® (Promega, Fitchburg, WI, United States). Mitomicyn C and dasatinib were used as positive controls (Supplementary Table S1).
concentration at which 50% maximum effect is observed for each cell health parameter; NR - No response observed.

[5] = tested on: Salmonella typhimurium TA1537; assay: Ames test; conditions: CPL500036 5000µg/plate, n=3
[6] = tested on: Escherichia coli WP2 uvrA; assay: Ames test; conditions: CPL500036 5000µg/plate, n=3
Sprague–Dawley rats = assay: Hyperprolactinemia: plasma prolactin before and 2 h after administration; type: in vivo; conditions: 3 mg/kg, p.o., n = 4
Procedure: Four male Sprague–Dawley rats (∼10 weeks; Mossakowski Medical Research Institute, Polish Academy of Sciences, Warsaw, Poland), underwent gavage with CPL500036 (3 mg/kg), haloperidol (3 mg/kg; as a positive control) or vehicle. Rats were fasted for 16 h before administration. Blood samples from the tail vein were collected immediately before and 2 h after administration. Plasma was obtained by centrifugation (1,600 × g, 20 min, 4°C) of blood samples collected on K2EDTA, and was stored at −80°C until analyses. The prolactin concentration in plasma samples was determined using the Prolactin (rat) EIA kit (Bertin Rockville, MD, United States) according to the manufacturer’s protocol. The prolactin concentration difference was assessed as follows: %∆prolactin=cprolactin, 2h−cprolactin, 0h/[…] (1)

[7] = tested on: Salmonella typhimurium TA98; assay: Ames test; conditions: CPL500036 5000µg/plate, n=3
PDE10A = PDE10A (Homo sapiens, UniProt Q9Y233); design: method as in ref Schmidt et al., 2008; Grauer et al., 2009; Harada et al., 2015; conditions: ref Schmidt et al., 2008; Grauer et al., 2009; Harada et al., 2015; read-out: IC50 against PDE10A; cited from earlier work
PDE10A, sequence (Q9Y233 whole entry, species assumed): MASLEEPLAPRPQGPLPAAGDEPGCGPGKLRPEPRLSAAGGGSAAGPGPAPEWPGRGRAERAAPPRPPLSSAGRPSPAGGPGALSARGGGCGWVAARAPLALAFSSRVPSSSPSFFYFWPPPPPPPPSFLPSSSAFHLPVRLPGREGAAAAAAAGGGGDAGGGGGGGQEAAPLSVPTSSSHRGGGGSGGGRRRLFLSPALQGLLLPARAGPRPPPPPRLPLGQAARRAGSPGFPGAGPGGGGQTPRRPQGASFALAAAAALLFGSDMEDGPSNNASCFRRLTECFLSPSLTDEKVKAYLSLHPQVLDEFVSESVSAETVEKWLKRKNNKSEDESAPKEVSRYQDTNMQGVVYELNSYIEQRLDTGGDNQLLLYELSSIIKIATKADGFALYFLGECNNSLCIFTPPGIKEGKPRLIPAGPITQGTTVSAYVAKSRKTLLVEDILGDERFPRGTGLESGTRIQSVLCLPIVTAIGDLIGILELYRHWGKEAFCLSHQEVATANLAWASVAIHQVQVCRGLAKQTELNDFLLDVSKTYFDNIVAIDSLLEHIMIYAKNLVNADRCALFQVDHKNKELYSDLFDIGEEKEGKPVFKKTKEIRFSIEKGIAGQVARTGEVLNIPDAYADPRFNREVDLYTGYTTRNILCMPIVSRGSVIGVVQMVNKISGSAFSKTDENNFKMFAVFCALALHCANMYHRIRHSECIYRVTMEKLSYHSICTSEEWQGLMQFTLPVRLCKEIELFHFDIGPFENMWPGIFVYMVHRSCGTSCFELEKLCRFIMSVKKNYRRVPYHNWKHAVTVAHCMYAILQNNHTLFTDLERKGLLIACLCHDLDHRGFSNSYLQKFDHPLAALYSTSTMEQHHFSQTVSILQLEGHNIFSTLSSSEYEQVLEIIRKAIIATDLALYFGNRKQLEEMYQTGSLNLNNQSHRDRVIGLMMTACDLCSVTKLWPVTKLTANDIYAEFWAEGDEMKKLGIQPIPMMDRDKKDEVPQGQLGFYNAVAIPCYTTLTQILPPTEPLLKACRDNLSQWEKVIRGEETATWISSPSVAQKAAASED

[8] = Without metabolic activation (-S9 mix), SAZ 2µg/plate
[9] = read-out: Mitochondrial mass AC50
[10] = read-out: Mitochondrial membrane potential AC50
[11] = Without metabolic activation (-S9 mix), 9AA 50µg/plate
[12] = With metabolic activation (+S9 mix), 2AA 2µg/plate
[13] = Without metabolic activation (-S9 mix), NPD 4µg/plate

SMILES: [N-]=[N+]=[N-].[Na+] [SAZ, Sodium Azide, reference compound]
- Mutation rate [1, 8]: 12.76
- Revertants Mean±SD [1, 8]: 1093.0±64.66
- Mutation rate [2, 8]: 74.21
- Revertants Mean±SD [2, 8]: 940.0±91.95

SMILES: Cc1ncc(C)n2nc(/C=C/c3nc(N4CCCC4)cc(N4CCOCC4)n3)nc12 [PDM-042, (E )-4-(2-(2-(5,8-dimethyl-[1,2, 4]triazolo[1,5-a]pyrazin-2-yl)vinyl)-6-(pyrrolidin-1-yl)pyrimidin-4-yl)morpholine]
- cataleptic effect [3]: weaker than that for marketed antipsychotics and did not increase with increasing dose

SMILES: CO[C@@]12[C@H](COC(N)=O)C3=C(C(=O)C(C)=C(N)C3=O)N1C[C@@H]1N[C@@H]12 [Mitomycin C]
- Calcium MEC [4]: 79.1 µM
- Cellular ATP MEC [4]: 0.243 µM
- DNA structure MEC [4]: 0.704 µM
- Mitochondrial mass MEC [4]: < 0.04 µM
- Mitochondrial membrane potential MEC [4]: 1.89 µM
- Spheroid count MEC [4]: 2 µM
- Spheroid size MEC [4]: 2.97 µM
- AC50 ([4]; read-out: Calcium AC50): > 100 µM
- AC50 ([4]; read-out: Cellular ATP AC50): 0.766 µM
- AC50 ([4]; read-out: DNA structure AC50): 4.41 µM
- AC50 [4, 9]: 0.731 µM
- AC50 [4, 10]: 3.88 µM
- AC50 ([4]; read-out: Spheroid size AC50): > 100 µM

SMILES: COCCc1ccc(-c2c(C)nc3c(N4CCOCC4)nccn23)cn1 [JNJ-42314,415]
- cataleptic effect [3]: weaker than that for marketed antipsychotics and did not increase with increasing dose

SMILES: Cc1nc(Nc2ncc(C(=O)Nc3c(C)cccc3Cl)s2)cc(N2CCN(CCO)CC2)n1 [Dasatinib]
- Calcium MEC [4]: 43.0 µM
- Cellular ATP MEC [4]: 0.075 µM
- DNA structure MEC [4]: 2.92 µM
- Mitochondrial mass MEC [4]: 2.43 µM
- Mitochondrial membrane potential MEC [4]: 16.82 µM
- Spheroid size MEC [4]: 0.469 µM
- AC50 ([4]; read-out: Calcium AC50): > 50 µM
- AC50 ([4]; read-out: Cellular ATP AC50): 0.374 µM
- AC50 ([4]; read-out: DNA structure AC50): > 50 µM
- AC50 [4, 9]: > 5 µM
- AC50 [4, 10]: 26.4 µM
- AC50 ([4]; read-out: Spheroid count AC50): > 50 µM
- AC50 ([4]; read-out: Spheroid size AC50): 23.4 µM

SMILES: COc1cn(-c2ccc(-n3cccn3)cc2F)nc(-c2ccnn2-c2ccccc2)c1=O [TAK-063]
- cataleptic effect [3]: weaker than that for marketed antipsychotics and did not increase with increasing dose

SMILES: Nc1c2ccccc2nc2ccccc12 [9AA, 9-Aminoacridine, reference compound]
- Mutation rate [5, 11]: 50.65
- Revertants Mean±SD [5, 11]: 287.0±65.60

SMILES: COS(C)(=O)=O [MMS, Methyl methanesulfonate, reference compound]
- Mutation rate ([6]; Without metabolic activation (-S9 mix), MMS 2µg/plate): 33.85

SMILES: O=C(CCCN1CCC(O)(c2ccc(Cl)cc2)CC1)c1ccc(F)cc1 [Haloperidol]
- prolactin release (relative change in the prolactin level before and 2 h after administration) (Sprague–Dawley rats): induced significant prolactin release

SMILES: Nc1ccc2cc3ccccc3cc2c1 [2AA, 2-aminoanthracene, reference compound]
- Mutation rate [7, 12]: 84.13
- Revertants Mean±SD [7, 12]: 1682.7±156.02
- Mutation rate [1, 12]: 19.26
- Revertants Mean±SD [1, 12]: 1464.0±361.88
- Mutation rate [2, 12]: 11.38
- Revertants Mean±SD [2, 12]: 159.3±15.57
- Mutation rate [5, 12]: 9.0
- Revertants Mean±SD [5, 12]: 78.0±7.94
- Mutation rate [6, 12]: 8.49
- Revertants Mean±SD [6, 12]: 203.7±3.79

SMILES: FC(F)(F)Cn1cc(-c2ccncc2)c(-c2ccc(OCc3ccc4ccccc4n3)cc2)n1 [TP-10]
- pIC50 (PDE10A): 9.52

SMILES: Nc1ccc([N+](=O)[O-])cc1N [NPD, 4-Nitro-1,2-phenylenediamine, reference compound]
- Mutation rate [7, 13]: 18.6
- Revertants Mean±SD [7, 13]: 335.0±57.51
